# Test results taken from ChEMBL document CHEMBL1201862, “PubChem BioAssay data set” (2004).
# Where “and” joins values, the source holds several entries; their conditions need not be identical. Equal values may be shown once. Calls of active or inactive are those of the source.
# Tests used:
# Major prion protein = Major prion protein (Homo sapiens, UniProt P04156); format: functional, cell-based
# cells [1] = test: cells
# [2] = HEp-2 cell cytotoxicity, dose response, cytotoxicity control for RSV inhibitor project, HTS (AID 2410); format: functional; conditions: human respiratory syncytial virus
# [3] = target: T1, Microphthalmia-associated transcription factor (Homo sapiens, UniProt O75030); test: TRPM1 promoter luciferase signal decrease, dose response, MITF inhibitor project, cell-based, SK-MEL-5, cherry-picked, set 3 (AID 493073); format: functional
# T1 sequence (O75030 whole entry): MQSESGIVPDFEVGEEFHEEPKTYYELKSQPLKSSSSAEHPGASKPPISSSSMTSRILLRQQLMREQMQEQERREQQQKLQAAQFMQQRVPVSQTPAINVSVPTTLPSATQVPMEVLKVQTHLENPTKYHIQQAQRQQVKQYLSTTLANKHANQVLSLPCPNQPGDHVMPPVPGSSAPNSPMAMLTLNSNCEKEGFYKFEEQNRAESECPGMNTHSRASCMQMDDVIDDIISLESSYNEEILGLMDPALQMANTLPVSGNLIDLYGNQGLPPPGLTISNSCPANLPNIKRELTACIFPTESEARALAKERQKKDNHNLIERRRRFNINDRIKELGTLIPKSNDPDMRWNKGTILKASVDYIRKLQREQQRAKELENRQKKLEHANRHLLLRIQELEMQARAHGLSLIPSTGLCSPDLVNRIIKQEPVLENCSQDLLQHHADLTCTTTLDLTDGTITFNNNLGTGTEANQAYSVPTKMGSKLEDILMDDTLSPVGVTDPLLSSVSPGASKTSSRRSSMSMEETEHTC
# Insulin-degrading enzyme [4] = target: T2, Insulin-degrading enzyme (Homo sapiens, UniProt P14735); test: activators of recombinant IDE enzyme, dose response, counter-screen for IDE activator project, biochemical, fluorescence polarization (AID 588681)
# T2 sequence (P14735 whole entry): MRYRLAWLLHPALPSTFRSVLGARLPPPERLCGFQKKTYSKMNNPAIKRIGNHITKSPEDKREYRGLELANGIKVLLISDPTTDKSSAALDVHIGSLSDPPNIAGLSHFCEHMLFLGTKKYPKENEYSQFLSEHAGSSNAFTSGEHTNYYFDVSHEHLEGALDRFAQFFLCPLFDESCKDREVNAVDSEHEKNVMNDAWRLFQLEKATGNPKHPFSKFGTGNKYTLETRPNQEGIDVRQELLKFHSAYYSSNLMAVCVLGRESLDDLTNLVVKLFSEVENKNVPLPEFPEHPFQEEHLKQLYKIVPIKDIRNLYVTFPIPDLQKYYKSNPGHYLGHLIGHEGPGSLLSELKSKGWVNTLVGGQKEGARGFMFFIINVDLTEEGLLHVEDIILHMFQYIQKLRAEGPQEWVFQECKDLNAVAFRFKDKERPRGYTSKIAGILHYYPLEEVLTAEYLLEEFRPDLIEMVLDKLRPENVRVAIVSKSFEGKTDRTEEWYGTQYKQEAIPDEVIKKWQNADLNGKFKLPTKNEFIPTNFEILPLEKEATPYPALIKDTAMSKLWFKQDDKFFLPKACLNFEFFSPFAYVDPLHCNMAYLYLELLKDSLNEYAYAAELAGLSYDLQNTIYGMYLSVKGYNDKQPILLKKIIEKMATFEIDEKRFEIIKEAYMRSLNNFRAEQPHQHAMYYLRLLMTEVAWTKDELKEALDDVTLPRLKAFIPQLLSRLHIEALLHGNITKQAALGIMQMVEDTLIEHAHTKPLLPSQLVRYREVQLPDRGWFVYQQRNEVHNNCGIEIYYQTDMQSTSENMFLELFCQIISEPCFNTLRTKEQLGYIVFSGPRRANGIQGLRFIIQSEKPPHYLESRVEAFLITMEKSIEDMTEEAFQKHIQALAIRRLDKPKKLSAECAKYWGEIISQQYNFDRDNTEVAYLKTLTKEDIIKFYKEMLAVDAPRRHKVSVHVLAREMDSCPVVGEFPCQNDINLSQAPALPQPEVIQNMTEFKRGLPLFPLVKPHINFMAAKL
# Insulin-degrading enzyme [5] = target: T2, Insulin-degrading enzyme; test: activators of endogenous IDE in HEK cells, dose response, cell-based, fluorescence polarization (AID 588439); format: functional
# HEK293 [6] = test: HEK cell cytotoxicity by LDH release, dose response, cytotoxicity control for IDE activator project, fluorescence, HEK cells (AID 588440); format: functional, cell-based; conditions: Homo sapiens;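 further: cytotoxicity by LDH release measuring loss of membrane integrity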
# HEK293 [7] = test: optical interference in Abeta FP readout, dose response, artefact control for IDE activator project, biochemical, fluorescence polarization (AID 588442); format: functional, cell-based; conditions: Homo sapiens
# A-375 = test: A375 melanoma cell viability reduction, dose response, counter-screen for MITF modulator project, cherry-pick samples, set 2 (AID 540335); format: functional, cell-based; conditions: Homo sapiens
# Melanocortin receptor 4 = Melanocortin receptor 4 (Homo sapiens, UniProt P32245); format: functional, cell-based;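 further: Cell-based assay with luminescence read-out, confirmatory dose-response testing for agonist activity of biased ligands at MC4R; human U2OS cells with tagged receptor and beta-arrestin; potency of agonists that increase receptor coupling to beta-arrestin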
# [8] = miR-122 activators in hepatoma reporter cells, dose response, cell-based, Huh7 psiCHECK-miR122, Renilla luciferase, cherry-picked (AID 651956); format: functional;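 further: huh7 hepatoma cells stably carrying a psiCHECK-2 miR-122 sensor plasmid; renilla luciferase signal reporting endogenous miR-122 activity after 48 h compound exposure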
# [9] = target: T3, DNA repair protein RAD52 homolog (Homo sapiens, UniProt P43351); format: functional, biochemical
# T3 sequence (P43351 whole entry): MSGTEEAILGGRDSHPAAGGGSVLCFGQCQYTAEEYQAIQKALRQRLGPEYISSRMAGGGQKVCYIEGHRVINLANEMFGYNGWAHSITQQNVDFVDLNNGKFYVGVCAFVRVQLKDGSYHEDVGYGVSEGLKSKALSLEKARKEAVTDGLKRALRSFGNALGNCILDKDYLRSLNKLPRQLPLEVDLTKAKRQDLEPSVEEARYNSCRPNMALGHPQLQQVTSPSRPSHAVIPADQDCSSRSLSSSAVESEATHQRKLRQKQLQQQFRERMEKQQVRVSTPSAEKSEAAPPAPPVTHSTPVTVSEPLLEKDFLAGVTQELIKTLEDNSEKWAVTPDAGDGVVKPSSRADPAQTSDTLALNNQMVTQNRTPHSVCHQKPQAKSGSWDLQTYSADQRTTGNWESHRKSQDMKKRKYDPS
# [10] = HEK293T cytotoxicity, dose response, cytotoxicity control for miR-122 modulator project, cell-based, inhibitor set, cherry-pick, set 2 (AID 720697); format: functional
# [11] = HEK293T cytotoxicity, dose response, cytotoxicity control for miR-122 modulator project, cell-based, activator set, cherry-pick (AID 720690); format: functional;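 further: HEK293T human cells scored for general mammalian cytotoxicity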
# [12] = target: Metabotropic glutamate receptor 3 (Rattus norvegicus, UniProt P31422); test: mGlu3 negative allosteric modulator potency, dose response, HEK/GIRK cells, thallium flux, rat (AID 651839); format: functional
# [13] = target: Metabotropic glutamate receptor 5 (Rattus norvegicus, UniProt P31424); test: Identification of a glycine sulfonamide based non-MPEP site positive allosteric potentiator (PAM) of mGlu5 (calcium_assay).; format: functional
# [14] = A Cell-Based Confirmatory Screen for Compounds that Inhibit VEEV, TC-83 (8).; format: functional
# [15] = A Cell-Based Confirmatory Screen for Compounds that Inhibit VEEV, TC-83 (5).; format: functional
# [16] = A Cell-Based Confirmatory Screen for Compounds that Inhibit VEEV TC-83 (4).; format: functional
# HEK293 [17] = test: HEK293T cell cytotoxicity, dose response, cytotoxicity control, ATP luminescence, cherry-pick samples (AID 687005); format: functional, cell-based; conditions: Homo sapiens;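 further: cells exposed to compound for 48 hours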
# [18] = HEK293 Cytotoxicity Assay Measured in Cell-Based System Using Plate Reader - 7071-01_Inhibitor_Dose_CherryPick_Activity_Set2.; format: functional
# [19] = HepG2 cell cytotoxicity, dose response, cytotoxicity control, ATP luminescence, cherry-pick, set 6 (AID 1053125); format: functional, cell-based
# cells [20] = conditions: A549
# cells [21] = conditions: HEK293
# [22] = target: Beta-2 adrenergic receptor (Homo sapiens, UniProt P07550); test: beta2AR agonists driving receptor internalization, dose response, cell-based, FAP fluorogen, flow cytometry, cherry pick 1 (AID 588763); format: functional
# [23] = inhibitors of HIV Env-driven cell fusion, dose response, cherry-pick (AID 652057); format: functional, cell-based
# [24] = ZM109 Env clade C HIV-1 fusion inhibitors, dose response, HeLa effector, CEM target cells, luciferase, cherry-pick (AID 652058); format: functional, cell-based
# [25] = off-target signal loss in HeLa-CEM21 co-culture – HeLa F-luc CTL cells, cherry-picked, counter-screen for HIV-1 Env fusion inhibitor project, dose response (AID 652040); format: functional, cell-based;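 further: potency for signal decrease marking cytotoxic or nonspecific inhibition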
# [26] = inhibitors of clade B AD8 Env fusion, dose response, cell-based, cherry-pick (AID 652062); format: functional;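 further: luciferase signal from cell-cell fusion driven by HIV-1 clade B AD8 Env; potency is for inhibitors of fusion seen as a drop in luminescence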
# [27] = CEM21 cell cytotoxicity, dose response, cytotoxicity control, plate reader, dry powder (AID 687026); format: functional, cell-based
# [28] = target: T4, Oxysterols receptor LXR-beta (Homo sapiens, UniProt P55055); format: functional, cell-based;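 further: agonist activity at LXR measured by a cell-based luminescence readout across a dose range, run as a counterscreen for daf-12 agonists; HEK293 cells with Gal4-LXR fusion and GAL4-driven luciferase reporter; potency for activation of Gal4-LXR reporter so compounds are agonists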
# T4 sequence (P55055 whole entry): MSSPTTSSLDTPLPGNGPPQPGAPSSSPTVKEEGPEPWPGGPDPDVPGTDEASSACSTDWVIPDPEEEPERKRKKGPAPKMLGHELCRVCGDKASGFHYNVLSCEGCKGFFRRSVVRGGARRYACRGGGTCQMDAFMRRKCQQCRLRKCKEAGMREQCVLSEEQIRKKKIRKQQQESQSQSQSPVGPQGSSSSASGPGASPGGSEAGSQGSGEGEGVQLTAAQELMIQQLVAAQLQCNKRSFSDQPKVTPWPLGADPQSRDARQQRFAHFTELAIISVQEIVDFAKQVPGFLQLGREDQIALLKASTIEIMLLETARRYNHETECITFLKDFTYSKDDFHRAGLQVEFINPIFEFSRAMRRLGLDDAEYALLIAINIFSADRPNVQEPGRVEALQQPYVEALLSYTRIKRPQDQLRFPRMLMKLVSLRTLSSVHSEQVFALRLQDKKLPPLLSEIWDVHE
# Paired box protein Pax-8 = Paired box protein Pax-8 (Homo sapiens, UniProt Q06710); test: inhibitors of PAX8-driven TPO luciferase reporter, dose response, RMG-I cells, cherry-pick (AID 687027); format: functional, cell-based;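 further: luciferase reporter driven by Pax8 target thyroperoxidase promoter measured by SteadyGlo luminescence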
# [29] = IOSE-T80 ovarian epithelial cell cytotoxicity, dose response, cytotoxicity control for PAX8 inhibitor project, plate reader, dry powder samples (AID 743045); format: functional, cell-based
# [30] = A2780 ovarian cancer cell cytotoxicity, dose response, cytotoxicity control, plate reader, dry powder samples (AID 743046); format: functional, cell-based
# [31] = NIH:OVCAR-3 ovarian cancer cell cytotoxicity, dose response, PAX8 inhibitor project, plate reader, dry powder samples (AID 743044); format: functional, cell-based
# [32] = IGROV1 ovarian cancer cell cytotoxicity, dose response, PAX8 inhibitor project, plate reader, dry powder samples (AID 743043); format: functional, cell-based; conditions: IGROV-1
# [33] = cytotoxicity in OVCAR8 ovarian cancer cells, dose response, PAX8 project, cell-based, plate reader, dry powder samples (AID 743197); format: functional; conditions: OVCAR-8
smiles,measurement,setting,value
CCOC(=O)CSc1nc(Cc2ccccc2)nc2ccccc12,IC50,Major prion protein,4.31 µM (active)
same,IC50,cells [1],> 138 µM (inactive)
COc1cccc2sc(N(CCCN(C)C)C(=O)C(c3ccccc3)c3ccccc3)nc12,CC50,[2],13.6 µM (active)
same,AC50,[3],15.1 µM (active)
same,EC50,Insulin-degrading enzyme [4],> 54.7 µM (inactive)
same,EC50,Insulin-degrading enzyme [5],15.1 µM (inactive)
same,IC50,HEK293 [6],10.2 µM (inactive)
same,EC50,HEK293 [7],> 54.7 µM (inactive)
same,AC50,A-375,18.3 µM (active)
same,EC50,Melanocortin receptor 4,> 89.2 µM (inactive)
same,AC50,[8],8.07 µM (active)
same,AC50,[9],13.3 µM (active)
same,AC50,[10],1.77 µM (active)
same,AC50,[11],16.2 µM (active)
COc1ccc(OC)c(-c2ccc3cc(C(=O)N4CCCC(CO)C4)ccc3c2)c1 (configuration not stated),IC50,[12],9.16 µM (active)
O=S(=O)(c1ccc(C#Cc2cccc(F)c2)cc1)N1CCOCC1,EC50,[13],0.427 µM
O=c1c2cc([N+](=O)[O-])ccc2nc(CN2CCNCC2)n1-c1ccccc1F,IC50,[14],< 0.198 µM (active)
same,IC50,[15],< 0.23 µM (active)
same,IC50,[16],0.073 µM (active)
Cc1noc(C)c1NC(=O)N(C)C[C@@H]1Oc2ccc(NC(=O)NC(C)C)cc2CC(=O)N([C@H](C)CO)C[C@H]1C,AC50,HEK293 [17],1.61 µM (active)
same,AC50,[18],1.61 µM (active)
O=c1oc2cc(O)ccc2cc1-c1nc2ccccc2o1,AC50,[19],> 52 µM (inactive)
same,AC50,cells [20],> 52 µM (inactive)
same,AC50,cells [21],26.6 µM (active)
O=C(CCc1ccc(S(=O)(=O)N2CCOCC2)cc1)Nc1nc(COc2ccccc2)cs1,EC50,[22],1.4 µM (active)
same,AC50,[23],1.65 µM (active)
same,AC50,[24],1.07 µM (active)
same,AC50,[25],> 70 µM (inactive)
same,AC50,[26],4.58 µM (active)
same,AC50,[27],> 70 µM (inactive) and 50.5 µM (active)
Nc1ncc(Br)cc1/N=C/c1ccccc1,EC50,[28],> 67.5 µM (inactive)
Cc1ccc(S(=O)(=O)N(C)C[C@@H]2Oc3ccc(NC(=O)Nc4ccc(C(F)(F)F)cc4)cc3CC(=O)N([C@H](C)CO)C[C@@H]2C)cc1,AC50,Paired box protein Pax-8,3.06 µM (active)
same,AC50,[29],9.76 µM (active)
same,AC50,[30],20.7 µM (active)
same,AC50,[31],3.11 µM (active)
same,AC50,[32],10.1 µM (active)
same,AC50,[33],14.3 µM (active)
